pKi: −log10 of the molar value. Where a name gives a salt, the structure may show the parent alone. Read-outs that look alike come from different tables or passages of the source.
Tests used:
[1] = target: T1, human central type cannabinoid receptor (hCB1) (Homo sapiens, UniProt P21554); assay: Binding assay (in vitro), [3H]Win55212-2 displacement, membrane fractions of human CB1-CHO; settings: hCB1 expressed in CHO cells, [3H]Win55212-2 2 nM, 30° C. 90 minutes
T1 construct: expressed in transfected cells; host or cells: CHO cells
Protocol: (§1) Membrane fractions of human central type cannabinoid receptor (human CB1-CHO, hereinafter called hCB1) and human peripheral type cannabinoid receptor (human CB2-CHO, hereinafter called hCB2) expressed in CHO cells were used as samples. The reference material (hCB1: 20 μg/ml, hCB2: 5 μg/ml), labeled ligand ([^3H]Win55212-2, 2 nM) and unlabeled ligand Win55212-2 or test compound were added to a 24-well round bottom plate, and the plate was incubated at 30° C. for 90 minutes. 50 mM Tris-HB55 containing 0.2% BSA was used as an assay buffer. After incubation, the mixture was filtered (Packard, Unifilter 24GF/B) and dried, and then a scintillation solution (Packard, Microsint-20) was added thereto to determine the radioactivity of the sample (Packard, Top count A9912V). Nonspecific binding was determined by the addition of excessive amount of Win55212-2 (10 μM), and specific binding was calculated by subtracting the nonspecific binding from total binding determined by the addition of the labeled ligand only. The test compound was dissolved in DMSO to make the final concentration in DMSO to be 0.1%. IC50 value was determined from the proportion of the bound test compound in the specific binding, and K1 value of the test compound was calculated from the ICso value and Kd value of [^3H]Win55212-2. K1 value for the central type receptors/K1 value for peripheral type receptors (C/S) was also calculated as an indicator of the selectivity of the test compound for peripheral type receptors.

[2] = system: carrageenin-induced paw edema; assay: Carrageenin-induced paw edema model (in vivo); design: species or system C57BL/6J mice; settings: mice, oral in olive oil 1 hour before carrageenin, paw volume 3 hours later
Protocol: [2] Carrageenin-induced paw edema model (in vivo)
C57BL/6J mice (6 to 8 weeks of age) were used. […] After one hour of the administration, 50 μl of 1% solution of carrageenin in normal saline was administered intradermally at foot pad of the right hind paw. Three hours later, the volume of the right hind paw was measured and compared with the initial volume.

[3] = target: T2, human peripheral type cannabinoid receptor (hCB2) (Homo sapiens, UniProt P34972); assay: Binding assay (in vitro), [3H]Win55212-2 displacement, membrane fractions of human CB2-CHO; settings: for pKi: hCB2 expressed in CHO cells, [3H]Win55212-2 2 nM, 30° C. 90 minutes; for C/S (Ki central type receptors / Ki peripheral type receptors): indicator of selectivity for peripheral type receptors
T2 construct: expressed in transfected cells; host or cells: CHO cells
Protocol: as §1

[4] = read-out: Ki value Central type receptor (C)
[5] = Ki value Peripheral type receptor (S)
[6] = Ki value Central type receptor (C)
[7] = read-out: Ki value Peripheral type receptor (S)

T2 sequence (P34972 whole entry): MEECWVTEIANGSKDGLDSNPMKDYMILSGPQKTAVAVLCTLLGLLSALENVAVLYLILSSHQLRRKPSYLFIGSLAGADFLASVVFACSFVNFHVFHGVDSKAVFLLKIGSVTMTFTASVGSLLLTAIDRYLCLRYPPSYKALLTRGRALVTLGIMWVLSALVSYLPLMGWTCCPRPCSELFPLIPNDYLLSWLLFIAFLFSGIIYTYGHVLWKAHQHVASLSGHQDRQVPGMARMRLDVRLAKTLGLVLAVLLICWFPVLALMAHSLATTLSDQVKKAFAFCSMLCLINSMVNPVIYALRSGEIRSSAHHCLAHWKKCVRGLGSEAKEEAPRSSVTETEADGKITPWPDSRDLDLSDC
T1 sequence (P21554 whole entry): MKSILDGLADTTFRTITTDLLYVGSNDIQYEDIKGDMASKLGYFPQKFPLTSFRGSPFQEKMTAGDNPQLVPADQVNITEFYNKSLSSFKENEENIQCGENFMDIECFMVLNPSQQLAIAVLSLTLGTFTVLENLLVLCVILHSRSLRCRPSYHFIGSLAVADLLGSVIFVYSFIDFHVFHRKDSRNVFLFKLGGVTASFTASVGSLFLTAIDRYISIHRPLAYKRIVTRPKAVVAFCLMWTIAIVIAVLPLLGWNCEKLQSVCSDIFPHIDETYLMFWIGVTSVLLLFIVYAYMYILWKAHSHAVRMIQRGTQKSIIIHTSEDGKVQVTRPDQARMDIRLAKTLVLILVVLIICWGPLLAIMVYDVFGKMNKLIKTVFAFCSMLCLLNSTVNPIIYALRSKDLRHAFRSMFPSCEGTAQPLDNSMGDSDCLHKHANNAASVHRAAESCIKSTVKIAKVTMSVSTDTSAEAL

Compound	pKi [1, 4]	ED50 [2]	pKi [3, 5]	C/S (Ki central type receptors / Ki peripheral type receptors) [3]	C/S (Ki central type receptors / Ki peripheral type receptors) ([3]; hydrochloride)	pKi [1, 6]	pKi [3, 7]	ED60 [2]
CCCCCOc1c(OC)ccc2cc(C(=O)NCc3ccc4c(c3)OCO4)c(=O)[nH]c12 [Example 3-5, 7-Methoxy-2-oxo-8-pentyloxy-1,2-dihydroquinoline-3-carboxylic acid (3,4-methylenedioxybenzyl)amide]	5.46	<0.10 mg/kg; p.o.	–	–	–	–	–	–
CCCCCOc1c(OC)ccc2cc(C(=O)NCc3ccncc3)c(=O)[nH]c12 [Example 3-9, 7-methoxy-2-oxo-8-pentyloxy-1,2-dihydroquinoline-3-carboxylic acid (4-pyridyl methyl)amide]	–	0.58 mg/kg; p.o.	–	–	–	–	–	–
CCCCCOc1c(OC)ccc2cc(C(=O)NCCN3CCOCC3)c(=O)[nH]c12 [Example 3-11, 7-methoxy-2-oxo-8-pentyloxy-1,2-dihydroquinoline-3-carboxylic acid (2-morpholinoethyl)amide]	–	0.40 mg/kg; p.o.	–	–	–	–	–	–
CCCCOc1c(OC)ccc2cc(C(=O)NCCc3ccc(F)cc3)c(=O)[nH]c12 [Example 3-15, 8-butoxy-7-methoxy-2-oxo-1,2-dihydroquinoline-3-carboxylic acid [2-(4-fluorophenyl)ethyl]amide]	6.60	0.41 mg/kg; p.o.	10.80	15580	–	–	–	–
CCCCOc1c(OC)ccc2cc(C(=O)NCCc3ccncc3)c(=O)[nH]c12 [Example 3-17, 8-butoxy-7-methoxy-2-oxo-1,2-dihydroquinoline-3-carboxylic acid (2-pyridine-4-ylethyl)amide hydrochloride]	6.70	1.39 mg/kg; p.o.	9.64	–	867	–	–	–
CCCCCOc1c(OC)ccc2cc(C(=O)NCCc3ccc(Cl)cc3)c(=O)[nH]c12 [Example 3-22, 7-methoxy-2-oxo-8-pentyloxy-1,2-dihydroquinoline-3-carboxylic acid [2-(4-chlorophenyl)ethyl]amide]	–	0.76 mg/kg; p.o.	9.70	675	–	6.87	–	–
CCCOc1c(OC)ccc2cc(C(=O)NCCc3ccncc3)c(=O)[nH]c12 [Example 3-26, 7-methoxy-2-oxo-8-propoxy-1,2-dihydroquinoline-3-carboxylic acid (2-pyridine-4-ylethyl)amide]	6.19	–	–	2817	–	–	9.64	1.32 mg/kg; p.o.
CCCOc1c(OC)ccc2cc(C(=O)NCCc3ccc(F)cc3)c(=O)[nH]c12 [Example 3-27, 7-methoxy-2-oxo-8-propoxy-1,2-dihydroquinoline-3-carboxylic acid [2-(4-fluorophenyl)ethyl]amide]	6.47	–	–	15990	–	–	10.68	0.53 mg/kg; p.o.
CCCOc1c(OC)ccc2cc(C(=O)NCCc3ccccc3)c(=O)[nH]c12 [Example 3-30, 7-methoxy-2-oxo-8-propoxy-1,2-dihydroquinoline-3-carboxylic acid (2-phenylethyl)amide]	–	–	10.05	1862	–	–	–	0.49 mg/kg; p.o.
CCCCCOc1c(OC)ccc2cc(C(=O)NCCc3ccncc3)c(=O)n(C)c12 [Example 3-37, 1-methyl-7-methoxy-2-oxo-8-pentyloxy-1,2-dihydroquinoline-3-carboxylic acid (2-pyridine-4-ylethyl)amide]	–	–	9.12	104	–	7.11	–	0.63 mg/kg; p.o.
CCCCCOc1c(OC)ccc2cc(C(=O)NCCN3CCOCC3)c(=O)n(C)c12 [Example 3-38, 1-methyl-7-methoxy-2-oxo-8-pentyloxy-1,2-dihydroquinoline-3-carboxylic acid (2-morpholinoethyl) amide]	6.03	–	10.07	11002	–	–	–	2.24 mg/kg; p.o.
CCCCCOc1c(OC)ccc2cc(C(=O)NCc3ccc(F)cc3)c(=O)n(C)c12 [Example 3-40, 1-methyl-7-methoxy-2-oxo-8-pentyloxy-1,2-dihydroquinoline-3-carboxylic acid (4-fluorobenzyl)amide]	6.15	–	8.67	330	–	–	–	1.19 mg/kg; p.o.
CCCCCOc1cc2cc(C(=O)NCc3ccc4c(c3)OCO4)c(=O)n(C)c2cc1OC [Example 3-45, 1-methyl-7-methoxy-2-oxo-6-pentyloxy-1,2-dihydroquinoline-3-carboxylic acid (3,4-methylenedioxybenzyl)amide]	6.42	–	10.49	11902	–	–	–	–
CCCCCOc1ccc2cc(C(=O)NCCc3ccc(F)cc3)c(=O)[nH]c2c1OCCCCC [Example 3-46, 7,8-dipentyloxy-2-oxo-1,2-dihydroquinoline-3-carboxylic acid [2-(4-fluorophenyl)ethyl]amide]	–	–	10.59	8776	–	6.64	–	–
CCCCOc1c(OC)ccc2cc(CO)c(=O)[nH]c12 [Example 5-1, 8-butoxy-3-hydroxy methyl-7-methoxy-2-oxo-1,2-dihydroquinoline]	6.16	–	–	–	–	–	9.35	–
CCOc1c(OC)ccc2cc(CO)c(=O)[nH]c12 [Example 5-2, 8-ethoxy-3-hydroxymethyl-7-methoxy-2-oxo-1,2-dihydroquinoline]	6.91	–	–	2219	–	–	10.26	–
CCCCOc1c(OC)ccc2cc(COC(=O)Nc3ccc(F)cc3)c(=O)[nH]c12 [Example 6-1, N-(4-fluorophenyl)carbamic acid (8-butoxy-7-methoxy-2-oxo-1,2-dihydroquinoline-3-yl)methyl ester]	6.15	–	–	15612	–	–	10.35	–
CCOc1c(OC)ccc2cc(COC(=O)Nc3ccncc3)c(=O)[nH]c12 [Example 6-2, N-pyridine-4-ylcarbamic acid (8-ethoxy-7-methoxy-2-oxo-1,2-dihydroquinoline-3-yl)methyl ester]	6.36	–	–	12866	–	–	10.47	–
CCOc1c(OC)ccc2cc(CN(C)C)c(=O)[nH]c12 [Example 7-1, 3-dimethyl aminomethyl-8-ethoxy-7-methoxy-2-oxo-1,2-dihydroquinoline]	5.44	–	–	21432	–	–	9.77	–
CCOc1c(OC)ccc2cc(CN3CCOCC3)c(=O)[nH]c12 [Example 7-3, 8-ethoxy-7-methoxy-3-morpholinomethyl-2-oxo-1,2-dihydroquinoline]	6.18	–	–	10735	–	–	10.21	–
CCCCOc1c(OC)ccc2cc(CNC(=O)Nc3ccc(F)cc3)c(=O)[nH]c12 [Example 8-1, N-[(8-butoxy-7-methoxy-2-oxo-1,2-dihydroquinoline-3-yl)methyl]-N′-(4-fluorophenyl)urea]	6.36	–	–	1000	–	–	9.36	–
CCCCOc1c(OC)ccc2cc(CNC(=O)Cc3ccc(O)cc3)c(=O)[nH]c12 [Example 8-2, N-[(8-butoxy-7-methoxy-2-oxo-1,2-dihydroquinoline-3-yl)methyl]-(4-hydroxyphenyl)acetamide]	6.14	–	9.57	2692	–	–	–	–

Reference: patent US6806276B2, “2-oxoquinoline compounds and pharmaceutical uses thereof” (Japan Tobacco Inc., priority 1999, dated 2004)
